# Measurements reported in patent publication US20020049223A1, “Quinoline and naphthyridine carboxylic acid antibacterials” (priority 1999, published 2002).
# Legend:
# Test in all cases: Assay B: in vitro antibacterial activity, broth microdilution MIC (NCCLS)
# Assay type in all cases: cell-based
# [1] = system: Haemophilus influenzae DILL AMP R; details: Table 2, Assay B, Mueller Hinton broth with yeast extract, hematin and NAD, 20 to 24 hr; code E = Haemophilus influenzae DILL AMP R; unit assumed
# Method in brief: (§1)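 MIC is the lowest concentration with no visible growth after serial two-fold dilution in cation-adjusted Mueller Hinton broth, approximately 5×10^5 CFU/mL inoculum, 16-20 h at 35 °C in air (NCCLS). Broth for H. influenzae gets 5 g/L yeast extract, 0.3 mmol/L hematin and 15 mg/L NAD, for S. pneumoniae 3% lysed horse blood; both incubated 20-24 h.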
# [2] = system: Escherichia coli JUHL; details: Table 2, Assay B, cation-adjusted Mueller Hinton broth, 35° C., 16 to 20 hr; code D = Escherichia coli JUHL; unit assumed
# Method in brief: as §1
# [3] = system: Enterococcus faecalis PIU 1967; details: Table 2, Assay B, cation-adjusted Mueller Hinton broth, 35° C., 16 to 20 hr; code B = Enterococcus faecalis PIU 1967; unit assumed
# Method in brief: as §1
# [4] = system: Staphylococcus aureus ATCC 6538P; details: Table 2, Assay B, cation-adjusted Mueller Hinton broth, 35° C., 16 to 20 hr; code A = Staphylococcus aureus ATCC 6538P; unit assumed
# Method in brief: as §1
# [5] = system: Streptococcus pneumoniae ATCC 6303; details: Table 2, Assay B, Mueller Hinton broth with 3% lysed horse blood, 20 to 24 hr; code F = Streptococcus pneumoniae ATCC 6303; unit assumed
# Method in brief: as §1
"Antibacterial Activity (MIC's), E [1] [µg/mL]","Antibacterial Activity (MIC's), D [2] [µg/mL]","Antibacterial Activity (MIC's), B [3] [µg/mL]","Antibacterial Activity (MIC's), A [4] [µg/mL]","Antibacterial Activity (MIC's), F [5] [µg/mL]",SMILES
0.125,2,0.5,0.03,0.25,"COC(=O)NC1Cc2cc(-c3ccc4c(=O)c(C(=O)O)cn(C5CC5)c4c3OC)sc2C1 (stereo not shown) [Example 251, 1-cyclopropyl-8-methoxy-7-(5-((methoxvycarbonyl)amino)-5,6-dihydro-4H-cyclopenta[b]thien-2-yl)-4-oxo-1,4-dihydro-3-quiunolinecarboxylic acid]"
0.25,4,1,0.5,1,"COc1c(-c2cc3c(s2)CC(NC(C)=O)C3)ccc2c(=O)c(C(=O)O)cn(C3CC3)c12 (stereo not shown) [Example 252, 7-(5-(acetylamino)-5,6-dihydro-4H-cyclopenta[b]thien-2-yl)-1-cyclopropyl-8-methoxy-4-oxo-1,4-dihydro-3-quinolinecarboxylic acid]"
0.06,1,0.5,0.06,0.25,"COc1c(-c2cc3c(s2)CC(NS(C)(=O)=O)C3)ccc2c(=O)c(C(=O)O)cn(C3CC3)c12 (stereo not shown) [Example 254, 1-cyclopropyl-8-methoxy-7-(5-((methylsulfonyl)amino)-5,6-dihydro-4H-cyclopenta[b]thien-2-yl)-4-oxo-1,4-dihydro-3-quinolinecarboxylic acid]"
2,32,4,0.5,8,COc1c(-c2cc3c(s2)CC(=NOCc2ccccc2)C3)ccc2c(=O)c(C(=O)O)cn(C3CC3)c12 [Example 255]
0.06,0.5,0.125,≤ 0.004,0.25,"COc1c(-c2cc3c(s2)C(O)C2(CC3)CC2)ccc2c(=O)c(C(=O)O)cn(C3CC3)c12 (stereo not shown) [Example 267, 7-(7-hydroxy-6-spirocyclopropyl-4,5,6,7-tetrahydro-1-benzothien-2-yl)-1-cyclopropyl-8-methoxy-4-oxo-1,4-dihydroquinoline-3-carboxylic acid]"
0.25,0.5,0.25,0.03,0.06,"COc1c(-c2cc3c(s2)C(N)CC(C)(C)C3)ccc2c(=O)c(C(=O)O)cn(C3CC3)c12.Cl (stereo not shown) [Example 268, 7-(7-amino-5,5-dimethyl-4,5,6,7-tetrahydro-1-benzothien-2-yl)-1-cyclopropyl-8-methoxy-4-oxo-1,4-dihydroquinoline-3-carboxylic acid hydrochloride]"
≤ 0.004,≤ 0.004,0.015,≤ 0.004,≤ 0.004,"Cl.NC1CCCc2cc(-c3nc4c(cc3F)c(=O)c(C(=O)O)cn4C3CC3)sc21 (stereo not shown) [Example 271, 7-(7-amino-4,5,6,7-tetrahydro-1-benzothien-2-yl)-1-cyclopropyl-6-fluoro-4-oxo-1,4-dihydro-1,8-naphthyridine-3-carboxylic acid hydrochloride]"
0.06,0.125,0.125,0.015,0.25,"O=C(O)c1cn(C2CC2)c2cc(-c3cc4c(s3)C(O)CCC4)ccc2c1=O (stereo not shown) [Example 280, 1-cyclopropyl-7-(7-hydroxy-4,5,6,7-tetrahydro-1-benzothien-2-yl)-4-oxo-1,4-dihydroquinoline-3-carboxylic acid]"
